For series [1] the following is noted: from http://www.drugbank.ca/drugs/DB00482; cited from earlier work.
In series [2] the test system is rat liver microsomes. The experiment in a line: Glucuronidation by rat liver microsomes. The class given is in vitro ADME. Conditions: rat. Here is the method:
(§1) FIG. 5A is a bar graph illustrating in vitro metabolism of phenolics via glucuronidation pathway. Glucuronidation rates of all the new locally bioavailable COX-2 inhibitors by rat liver microsomes. Additional metabolic rates of various locally bioavailable COX-2 inhibitors are in Table 3. […]. The incubation systems were: for glucuronidation, 0.88 mM magnesium chloride (MgCl2), 4.4 mM saccharolactone, 0.022 mg/mL alamethicin, 3.5 mM uridine 5′-diphospho-glucuronic acid (UDPGA), 10 μM substrates and different concentrations of microsomes in 50 mM potassium phosphate buffer (pH 7.4); for sulfation, 10 mM dithiothreitol (DTT), 5 mM MgCl2, 100 μM 3′-phosphoadenosine-5′-phosphosulfate (PAPS),10 μM substrate and different concentrations of S9 fractions in 50 mM potassium phosphate buffer (pH 7.4).
(§2) In vitro tools were employed to help predict the in vivo metabolism rates of the COX-2 inhibitors that are phenolics. The microsomes and S9 fractions prepared from colon or liver were used to determine the in vivo glucuronidation and sulfation rates of the phenolic compounds, respectively. By employing microsomes and S9 fractions prepared from both rats and humans, it could be determined if the results obtained in the rat model could be reasonably extrapolated to humans. In these experiments, raloxifene and genistein, two phenolic compounds which undergo extensive first-pass metabolism, were selected as controls.

For series [3], the system named is rat liver S9. Nature of the series: Sulfation by rat liver S9 fractions. The class given is in vitro ADME. Here is the method: as §1, with “FIG. 5C” for “FIG. 5A”, “via sulfonation” for “via glucuronidation”, “pathway. Sulfation” for “pathway. Glucuronidation”, “of 6a1-6a4” for “of all the new locally bioavailable COX-2 inhibitors”, “liver and colon S9 fractions.” for “liver microsomes.”, “μM 3′-phosphoadeno sine-5′-phosphosulfate” for “μM 3′-phosphoadenosine-5′-phosphosulfate”
as §2

In series [4] the test system is rat colon microsomes. The experiment in a line: Glucuronidation by rat colon microsomes. Type of series: in vitro ADME. Conditions: rat. Here is the method: as §1, with “5B” for “5A”, “glucuronidation” for “metabolism”, “in liver and colon microsomes of rats.” for “via glucuronidation pathway.”, “6a1-6a4” for “all the new locally bioavailable COX-2 inhibitors”, “and colon microsomes were measured.” for “microsomes.”, “(PAPS), 10” for “(PAPS),10”
as §2

Series [5] deals with rat colon S9. The experiment in a line: Sulfation by rat colon S9 fractions. Type of series: in vitro ADME. How it is done:
as §1, with “FIG. 5C” for “FIG. 5A”, “via sulfonation” for “via glucuronidation”, “pathway. Sulfation” for “pathway. Glucuronidation”, “of 6a1-6a4” for “of all the new locally bioavailable COX-2 inhibitors”, “liver and colon S9 fractions.” for “liver microsomes.”, “μM 3′-phosphoadeno sine-5′-phosphosulfate” for “μM 3′-phosphoadenosine-5′-phosphosulfate”
as §2

Series [6] concerns human liver microsomes. The experiment in a line: Glucuronidation by human liver microsomes. The class given is in vitro ADME. Particulars: human. How it is done:
as §1, with “FIG. 5D” for “FIG. 5A”, “of phenolics.” for “of phenolics via glucuronidation pathway.”, “of 6a1-6a4” for “of all the new locally bioavailable COX-2 inhibitors”, “by human” for “by rat”, “liver and intestinal” for “liver”, “Table 4.” for “Table 3.”
as §2

Series [7] has as its system human liver S9. The experiment in a line: Sulfation by human liver S9. The class given is in vitro ADME. Here is the method: as §1, with “FIG. 5D” for “FIG. 5A”, “of phenolics.” for “of phenolics via glucuronidation pathway.”, “of 6a1-6a4” for “of all the new locally bioavailable COX-2 inhibitors”, “by human” for “by rat”, “liver and intestinal” for “liver”, “Table 4.” for “Table 3.”
as §2

Series [8] relates to human intestine microsomes. The experiment in a line: Glucuronidation by human intestine microsomes. Type of series: in vitro ADME. Particulars: human. How it is done: as §1, with “FIG. 5D” for “FIG. 5A”, “of phenolics.” for “of phenolics via glucuronidation pathway.”, “of 6a1-6a4” for “of all the new locally bioavailable COX-2 inhibitors”, “by human” for “by rat”, “liver and intestinal” for “liver”, “Table 4.” for “Table 3.”
as §2

Series [9] relates to human intestine S9. Nature of the series: Sulfation by human intestine S9. Type of series: in vitro ADME. Here is the method: as §1, with “FIG. 5D” for “FIG. 5A”, “of phenolics.” for “of phenolics via glucuronidation pathway.”, “of 6a1-6a4” for “of all the new locally bioavailable COX-2 inhibitors”, “by human” for “by rat”, “liver and intestinal” for “liver”, “Table 4.” for “Table 3.”
as §2

Consider three compounds from patent US11202773B2, “Locally bioavailable drugs” (UNIVERSITY OF HOUSTON SYSTEM, priority 2015, dated 2021).

Marks after values point to notes of the source that are not given here.

Take `Cc1ccc(-c2cc(C(F)(F)F)nn2-c2ccc(S(N)(=O)=O)cc2)cc1` [Celecoxib, celecoxib]: in series [1], the LogP is recorded as 4.01^b.

For the compound `O=c1c(-c2ccc(O)cc2)coc2cc(O)cc(O)c12` [Genistein, reference compound], the “Glucuronidation rates by liver microsomes (Mean)” value in series [2] (substrate 10 μM) was found to be 2199 pmol/mg/min; in [6] (substrate 10 μM), 965 pmol/mg/min. Further, the “Sulfation rates by liver S9 (Mean)” value in [3] (substrate 10 μM) was determined as 77 pmol/mg/min; in series [7] (substrate 10 μM), 24 pmol/mg/min. The “Glucuronidation rates by colon microsomes (Mean)” value in [4] (substrate 10 μM) was found to be 142 pmol/mg/min. For the same compound, the “Sulfation rates by colon S9 (Mean)” value in series [5] (substrate 10 μM) amounted to 4 pmol/mg/min. In addition, in [8] (substrate 10 μM), the “Glucuronidation rates by intestine microsomes (Mean)” value is 4665 pmol/mg/min. The “Sulfation rates by human intestine S9 (Mean)” value in series [9] (substrate 10 μM) amounted to 46 pmol/mg/min.

Turning to `O=C(c1ccc(OCCN2CCCCC2)cc1)c1c(-c2ccc(O)cc2)sc2cc(O)ccc12` [Raloxifene, reference compound], the “Glucuronidation rates by liver microsomes (Mean)” value came to 402 pmol/mg/min in series [2] (10 μM, pH 7.4) and 681 pmol/mg/min in series [6] (10 μM, pH 7.4). The “Sulfation rates by liver S9 (Mean)” value worked out at 100 pmol/mg/min in series [3] (10 μM, pH 7.4) and 19 pmol/mg/min in series [7] (10 μM, pH 7.4). Further, the “Glucuronidation rates by colon microsomes (Mean)” value in series [4] (10 μM, pH 7.4) came to 54 pmol/mg/min. For the same compound, the “Sulfation rates by colon S9 (Mean)” value in series [5] (10 μM, pH 7.4) was 0 pmol/mg/min. The “Glucuronidation rates by intestine microsomes (Mean)” value in [8] (10 μM, pH 7.4) stood at 2846 pmol/mg/min. The “Sulfation rates by human intestine S9 (Mean)” value in [9] (10 μM, pH 7.4) is 58 pmol/mg/min.
